One assay addresses T1, phosphorylated c-MET (Homo sapiens, UniProt P08581).
T1 construct: endogenous in cells; host or cells: MKN45
The assay is described as follows: c-MET cell mechanistic assay (phosphorylated c-MET in MKN45 cells). The class given is cell-based. To be noted: MKN45 cell line, four hours incubation, phosphorylated c-MET levels, at least duplicate experiments; read-out: Met mech IC50. The procedure:
The cellular activity of the compounds of the present invention may be determined by the following procedure. MKN45 cells were plated in Falcon 3072 96-well plates in growth media (RPMI, 10% FBS, 1% L-glutamine) at a density of 5000 cells/well and incubated at 37° C., 5% CO2 overnight. The following day, one-tenth volume of a 10× concentration of compounds was added to the wells in a 6-point dilution series. The dilutions series was composed of an initial 1:5 dilution in DMSO, followed by a 1:10 dilution in growth media, for a final DMSO concentration on cells of 0.5%. Control wells were treated with 0.5% DMSO. The typical range of dilution was 10 μM to 3 nM. Once compound was added to the cells, plates were incubated for four hours at 37° C., 5% CO2. Plates were then washed in PBS, and lysed in triton-based lysis buffer. Lysates were transferred to a precoated capture plate made by Biosource (Cat # KH00281). The phosphorylated c-MET levels were measured by incubating with a rabbit polyclonal antibody against phosphorylated c-MET ([pYpYpY1230/1234/1235]) followed by an anti-rabbit antibody conjugated to HRP. Signal was measured on a Wallac Victor plate reader at 450 nm. The DMSO signal of the control wells was defined as 100% and the percent of inhibition of phosphorylated c-Met was expressed as percent of control. IC50 values were determined from the percent of control data using a standard four-parameter model.
The IC50 values of exemplary compounds of the present invention determined in a c-MET cell mechanistic assay using the MKN45 cell line according to the procedures described herein in at least duplicate experiments are abbreviated as follows and are shown in Table 3: A, IC50≦0.1 μM; B, 0.1 μM<IC50≦1 μM; C, 1 μM<IC50≦10 μM; D, IC50>10 μM; ND, not determined. The Example # of Table 3 corresponds to the compound example number as illustrated in the Examples section.

A further assay has as its system MKN45 cells. In words: MKN45 cell proliferation assay (CellTiter-Glo). In kind it is cell-based. The note with it: Homo sapiens, MKN-45, 72 h, MKN45 cell line, 3 days incubation, at least duplicate experiments, read-out: Prolif. IC50. The procedure: The effect of inhibitors on the proliferation of MKN45 cells was determined using the following protocol. MKN45 cells were plated in Corning 3917 96-well white tissue culture treated plates in growth medium (RPMI, 10% FCS) at a density of 5000 cells/well in a total volume of 135 μL and incubated at 37° C., 5% CO2, 95% humidity overnight. The following day, one-tenth volume of a 10× concentration of compounds was added to the wells in an 8-point dilution series. The dilution series was composed of an initial 1:5 dilution of a 10 mM stock of compound in DMSO, followed by serial 1:4 dilutions in DMSO, then a 1:20 dilution in growth medium prior to the 1:10 dilution into the cell plate. Final DMSO concentration on the cells was 0.1%, there were control wells treated with both 0.1% DMSO and no DMSO. The typical dilution range is 10 μM to 0.6 nM. Once the compound was added to the cells, plates were incubated for 3 days at 37° C., 5% CO2 at 95% humidity. On the third day, after allowing all cells and reagents to come to room temperature, 25 μL of CellTiter-Glo reagent (Promega # G7573) was added to the wells. Plates were shaken on a platform for 10 minutes prior to reading luminescence for 0.1 seconds. The signal of the control wells was taken as 100% growth and growth inhibition was expressed as percent of control. IC50 values were determined from the percent of control data using a standard four-parameter model.
The IC50 values of exemplary compounds of the present invention determined in a cell proliferation assay using the MKN45 cell line according to the procedures described herein in at least duplicate experiments are abbreviated as follows and are shown in Table 2: A, IC50≦0.1 μM; B, 0.1 μM<IC50≦1 μM; C, 1 μM<IC50≦10 μM; D, IC50>10 μM; ND, not determined. The Example # of Table 2 corresponds to the compound example number as illustrated in the Examples section.
(In general: In ATP-based viability assays light output follows the ATP content of the culture.)

pIC50: −log10 of the molar value. A value given as a limit tells only on which side of the number the result lay.

T1 sequence (P08581 25-1390): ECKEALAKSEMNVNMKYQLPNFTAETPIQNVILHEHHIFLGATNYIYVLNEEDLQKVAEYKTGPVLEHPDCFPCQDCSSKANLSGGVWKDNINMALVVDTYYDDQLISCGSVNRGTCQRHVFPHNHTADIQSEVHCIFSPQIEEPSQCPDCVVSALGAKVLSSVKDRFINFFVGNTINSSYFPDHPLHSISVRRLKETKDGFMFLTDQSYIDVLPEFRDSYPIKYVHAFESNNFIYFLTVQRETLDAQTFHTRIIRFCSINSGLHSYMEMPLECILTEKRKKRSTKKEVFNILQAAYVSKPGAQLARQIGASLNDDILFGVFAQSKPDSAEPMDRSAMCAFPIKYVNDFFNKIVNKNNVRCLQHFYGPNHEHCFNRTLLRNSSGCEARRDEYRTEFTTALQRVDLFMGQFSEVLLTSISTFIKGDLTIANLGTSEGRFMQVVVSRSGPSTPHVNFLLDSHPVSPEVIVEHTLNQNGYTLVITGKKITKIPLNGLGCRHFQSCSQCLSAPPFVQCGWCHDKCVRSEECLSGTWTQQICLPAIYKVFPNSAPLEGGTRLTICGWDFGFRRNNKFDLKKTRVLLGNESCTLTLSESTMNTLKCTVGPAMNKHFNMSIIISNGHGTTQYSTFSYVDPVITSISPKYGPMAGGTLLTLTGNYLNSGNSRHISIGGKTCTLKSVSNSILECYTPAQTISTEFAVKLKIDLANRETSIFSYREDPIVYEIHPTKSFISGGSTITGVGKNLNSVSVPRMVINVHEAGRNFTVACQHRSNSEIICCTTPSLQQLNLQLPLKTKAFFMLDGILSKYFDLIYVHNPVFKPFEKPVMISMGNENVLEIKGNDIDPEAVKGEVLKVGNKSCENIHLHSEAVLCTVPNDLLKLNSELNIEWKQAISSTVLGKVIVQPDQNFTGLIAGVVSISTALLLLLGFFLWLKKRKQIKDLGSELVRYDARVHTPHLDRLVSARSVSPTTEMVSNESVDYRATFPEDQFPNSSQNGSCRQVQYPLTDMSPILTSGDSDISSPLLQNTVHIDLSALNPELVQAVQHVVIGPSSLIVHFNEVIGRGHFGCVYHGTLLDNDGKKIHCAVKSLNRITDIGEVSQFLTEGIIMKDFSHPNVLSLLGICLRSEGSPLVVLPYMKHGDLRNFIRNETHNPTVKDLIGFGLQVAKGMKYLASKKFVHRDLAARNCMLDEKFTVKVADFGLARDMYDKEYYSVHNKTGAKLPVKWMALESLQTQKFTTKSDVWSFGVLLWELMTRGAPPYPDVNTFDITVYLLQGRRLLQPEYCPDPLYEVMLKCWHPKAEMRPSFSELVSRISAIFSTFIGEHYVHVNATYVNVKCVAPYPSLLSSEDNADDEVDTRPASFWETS

For `CC(c1c(Cl)ccc(F)c1Cl)c1c[nH]c2ncc(C3=CCN(C(N)=O)CC3)cc12` (centres unmarked) [Example 33, 4-{3-[1-(2,6-Dichloro-3-fluorophenyl)ethyl]-1H-pyrrolo[2,3-b]pyridin-5-yl}-3,6-dihydro-2H-pyridine-1-carboxamide], the negative logarithm of the IC50 (pIC50) was at least 7.00 on phosphorylated c-MET and 6.00 to 7.00 with MKN45 cells.

Regarding `CC(c1c(Cl)ccc(F)c1Cl)c1c[nH]c2ncc(C3=CCN(C(=O)N(C)C)CC3)cc12` (centres unmarked) [Example 36, 4-{3-[1-(2,6-Dichloro-3-fluorophenyl)-ethyl]-1H-pyrrolo[2,3-b]pyridin-5-yl}-3,6-dihydro-2H-pyridine-1-carboxylic acid dimethylamide], the negative-log IC50 (pIC50) on phosphorylated c-MET and in the assay on MKN45 cells was 6.00 to 7.00 each time.

Consider `CC(c1c(Cl)ccc(F)c1Cl)c1c[nH]c2ncc(C3=CCN(C=O)CC3)cc12` (centres unmarked) [Example 38, 4-{3-[1-(2,6-Dichloro-3-fluorophenyl)ethyl]-1H-pyrrolo[2,3-b]pyridin-5-yl}-3,6-dihydro-2H-pyridine-1-carbaldehyde], for which the pIC50 at phosphorylated c-MET and in the assay on MKN45 cells was 6.00 to 7.00 each time.

`CC(=O)N1CC=C(c2cnc3[nH]cc(C(C)c4c(Cl)ccc(F)c4Cl)c3c2)CC1` (centres unmarked) [Example 39, 1-(4-{3-[1-(2,6-Dichloro-3-fluorophenyl)ethyl]-1H-pyrrolo[2,3-b]pyridin-5-yl}-3,6-dihydro-2H-pyridin-1-yl)-ethanone]: the pIC50 at phosphorylated c-MET and in the assay on MKN45 cells was 6.00 to 7.00 each time.

Consider `CC(c1c(Cl)ccc(F)c1Cl)c1c[nH]c2ncc(C3=CCN(C(=O)[C@@H](C)O)CC3)cc12` (stereo partly drawn) [Example 40, (R)-1-(4-{3-[1-(2,6-Dichloro-3-fluorophenyl)ethyl]-1H-pyrrolo[2,3-b]-pyridin-5-yl}-3,6-dihydro-2H-pyridin-1-yl)-2-hydroxypropan-1-one], for which the pIC50 was at least 7.00 on phosphorylated c-MET and 6.00 to 7.00 with MKN45 cells.

Turning to `CC(c1c(Cl)ccc(F)c1Cl)c1c[nH]c2ncc(C3=CCN(C(=O)[C@H](C)O)CC3)cc12` (stereo partly drawn) [Example 41, (S)-1-(4-{3-[1-(2,6-Dichloro-3-fluorophenyl)ethyl]-1H-pyrrolo[2,3-b]-pyridin-5-yl}-3,6-dihydro-2H-pyridin-1-yl)-2-hydroxypropan-1-one], the pIC50 on phosphorylated c-MET was at least 7.00; with MKN45 cells it was 6.00 to 7.00.

As to `CC(c1c(Cl)ccc(F)c1Cl)c1c[nH]c2ncc(C3=CCN(C(=O)C(C)(C)O)CC3)cc12` (centres unmarked) [Example 42, 1-(4-{3-[1-(2,6-Dichloro-3-fluorophenyl)ethyl]-1H-pyrrolo[2,3-b]pyridin-5-yl}-3,6-dihydro-2H-pyridin-1-yl)-2-hydroxy-2-methylpropan-1-one], the negative logarithm of the IC50 (pIC50) at phosphorylated c-MET and with MKN45 cells was 6.00 to 7.00 each time.

Take `CC(c1c(Cl)ccc(F)c1Cl)c1c[nH]c2ncc(C3=CCN(C(=O)CO)CC3)cc12` (centres unmarked) [Example 43, 1-(4-{3-[1-(2,6-Dichloro-3-fluorophenyl)ethyl]-1H-pyrrolo[2,3-b]pyridin-5-yl}-3,6-dihydro-2H-pyridin-1-yl)-2-hydroxyethanone]: the pIC50 on phosphorylated c-MET and with MKN45 cells was at least 7.00 each time.

As for `CC(c1c(Cl)ccc(F)c1Cl)c1c[nH]c2ncc(C3=CCN(C(=O)C(C)(C)N)CC3)cc12` (centres unmarked) [Example 45, 2-Amino-1-(4-{3-[1-(2,6-dichloro-3-fluorophenyl)ethyl]-1H-pyrrolo[2,3-b]pyridin-5-yl}-3,6-dihydro-2H-pyridin-1-yl)-2-methylpropan-1-one], the pIC50 on phosphorylated c-MET and in the assay on MKN45 cells was at least 7.00 each time.

As to `CC(c1c(Cl)ccc(F)c1Cl)c1c[nH]c2ncc(C3=CCN(S(N)(=O)=O)CC3)cc12` (centres unmarked) [Example 46, 4-{3-[1-(2,6-Dichloro-3-fluorophenyl)ethyl]-1H-pyrrolo[2,3-b]pyridin-5-yl}-3,6-dihydro-2H-pyridine-1-sulfonic acid amide], the negative-log IC50 (pIC50) at phosphorylated c-MET and in the assay on MKN45 cells was 6.00 to 7.00 throughout.

`CC(c1c(Cl)ccc(F)c1Cl)c1c[nH]c2ncc(-c3cnn(C4CCN(C=O)CC4)c3)cc12` (centres unmarked) [Example 47, 4-(4-{3-[1-(2,6-Dichloro-3-fluorophenyl)ethyl]-1H-pyrrolo[2,3-b]pyridin-5-yl}-pyrazol-1-yl)-piperidine-1-carbaldehyde]: the pIC50 on phosphorylated c-MET and in the assay with MKN45 cells was at least 7.00 throughout.

Consider `CC(=O)N1CCC(n2cc(-c3cnc4[nH]cc(C(C)c5c(Cl)ccc(F)c5Cl)c4c3)cn2)CC1` (centres unmarked) [Example 48, 1-[4-(4-{3-[1-(2,6-Dichloro-3-fluorophenyl)ethyl]-1H-pyrrolo[2,3-b]pyridin-5-yl]-pyrazol-1-yl}-piperidin-1-yl)-ethanone], for which the pIC50 on phosphorylated c-MET and in the assay on MKN45 cells was at least 7.00 in each case.

With `CC(c1c(Cl)ccc(F)c1Cl)c1c[nH]c2ncc(-c3cnn(C4CCN(C(N)=O)CC4)c3)cc12` (centres unmarked) [Example 49, 4-(4-{3-[1-(2,6-Dichloro-3-fluorophenyl)ethyl]-1H-pyrrolo[2,3-b]pyridin-5-yl}-pyrazol-1-yl)-piperidine-1-carboxamide], the figures for the pIC50 at phosphorylated c-MET and in the assay with MKN45 cells were 6.00 to 7.00 and at least 7.00, respectively.

For `CC(c1c(Cl)ccc(F)c1Cl)c1c[nH]c2ncc(-c3cnn(C4CCN(S(C)(=O)=O)CC4)c3)cc12` (centres unmarked) [Example 50, 3-[1-(2,6-Dichloro-3-fluorophenyl)-ethyl]-5-[1-(1-methanesulfonyl-piperidin-4-yl)-1H-pyrazol-4-yl]-1H-pyrrolo[2,3-b]pyridine], the pIC50 at phosphorylated c-MET was at least 7.00; in the assay on MKN45 cells it was 6.00 to 7.00.

On to `CNC(=O)N1CCC(n2cc(-c3cnc4[nH]cc(C(C)c5c(Cl)ccc(F)c5Cl)c4c3)cn2)CC1` (centres unmarked) [Example 51, 4-(4-{3-[1-(2,6-Dichloro-3-fluorophenyl)ethyl]-1H-pyrrolo[2,3-b]pyridin-5-yl}-pyrazol-1-yl)-piperidine-1-carboxylic acid methylamide], for which the pIC50 on phosphorylated c-MET and in the assay with MKN45 cells was at least 7.00 in each case.

As for `CC(c1c(Cl)ccc(F)c1Cl)c1c[nH]c2ncc(-c3cnn(C4CNC4)c3)cc12` (centres unmarked) [Example 53, 5-(1-Azetidin-3-yl-1H-pyrazol-4-yl)-3-[1-(2,6-dichloro-3-fluoro-phenyl)ethyl]-1H-pyrrolo[2,3-b]pyridine], the results for the pIC50 at phosphorylated c-MET and in the assay on MKN45 cells were at least 7.00 and 6.00 to 7.00, respectively.

Regarding `CC(c1c(Cl)ccc(F)c1Cl)c1c[nH]c2ncc(-c3cnn(C4CN(C=O)C4)c3)cc12` (centres unmarked) [Example 55, 3-(4-{3-[1-(2,6-Dichloro-3-fluorophenyl)ethyl]-1H-pyrrolo[2,3-b]pyridin-5-yl}-pyrazol-1-yl)-azetidine-1-carbaldehyde], the pIC50 at phosphorylated c-MET and with MKN45 cells was at least 7.00 each time.

In the case of `CC(c1c(Cl)ccc(F)c1Cl)c1c[nH]c2ncc(-c3cnn(C4CN(C(N)=O)C4)c3)cc12` (centres unmarked) [Example 56, 3-(4-{3-[1-(2,6-Dichloro-3-fluorophenyl)ethyl]-1H-pyrrolo[2,3-b]pyridin-5-yl}-pyrazol-1-yl)-azetidine-1-carboxamide], the pIC50 is at least 7.00 on phosphorylated c-MET and 6.00 to 7.00 in the assay with MKN45 cells.

Turning to `CC(c1c(Cl)ccc(F)c1Cl)c1c[nH]c2ncc(-c3cnn(C4CN(S(C)(=O)=O)C4)c3)cc12` (centres unmarked) [Example 57, 3-[1-(2,6-Dichloro-3-fluorophenyl)-ethyl]-5-[1-(1-methanesulfonylazetidin-3-yl)-1H-pyrazol-4-yl]-1H-pyrrolo[2,3-b]pyridine], the pIC50 is at least 7.00 at phosphorylated c-MET and 6.00 to 7.00 in the assay on MKN45 cells.

The pIC50 is the negative decadic logarithm of the IC50, by convention in mol/L.
